The test concerns the target hSortilin (Homo sapiens (Human), UniProt Q99523). The experiment in a line: Neurotensin scintillation proximity assay, [125I]-neurotensin. The settings on record: displacement of [125I]-neurotensin binding to 6his-Sortilin; average of at least 2 determinations; read-out: IC50 [125I]Neurotensin SPA.

For one compound, IC50 results are on record in US20240217922A1, “MODULATORS OF SORTILIN ACTIVITY” (Insusense ApS, priority 2021, published 2024).

Sequence of hSortilin (Q99523 78-831): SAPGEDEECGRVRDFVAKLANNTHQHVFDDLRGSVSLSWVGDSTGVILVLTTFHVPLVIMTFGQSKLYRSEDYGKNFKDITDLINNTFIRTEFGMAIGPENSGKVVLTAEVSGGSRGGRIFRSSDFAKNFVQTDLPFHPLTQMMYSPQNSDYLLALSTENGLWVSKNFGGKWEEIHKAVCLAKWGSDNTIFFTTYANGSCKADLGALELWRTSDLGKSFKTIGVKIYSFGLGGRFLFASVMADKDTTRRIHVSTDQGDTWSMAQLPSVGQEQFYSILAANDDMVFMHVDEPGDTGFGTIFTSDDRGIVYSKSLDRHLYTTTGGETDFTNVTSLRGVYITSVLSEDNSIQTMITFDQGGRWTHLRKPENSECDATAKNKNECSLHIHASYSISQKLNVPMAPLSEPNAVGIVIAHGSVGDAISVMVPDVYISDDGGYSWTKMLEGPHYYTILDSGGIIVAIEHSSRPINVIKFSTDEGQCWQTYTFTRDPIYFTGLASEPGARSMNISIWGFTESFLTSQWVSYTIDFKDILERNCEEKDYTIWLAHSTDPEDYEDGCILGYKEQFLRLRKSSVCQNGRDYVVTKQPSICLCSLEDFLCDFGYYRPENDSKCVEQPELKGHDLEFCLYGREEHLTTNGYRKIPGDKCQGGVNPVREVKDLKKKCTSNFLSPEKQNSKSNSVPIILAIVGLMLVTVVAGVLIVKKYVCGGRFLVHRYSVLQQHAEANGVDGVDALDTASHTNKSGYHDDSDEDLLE
Protocol: Compound affinity was determined by measuring the displacement of
[3H]-neurotensin or [125I]-neurotensin binding to hSortilin in SPA format. Total volume of 40 μl in 50 mM HEPES pH 7.4 assay buffer containing 100 mM NaCl, 2.0 mM CaCI2, 0.1% BSA and 0.1% Tween-20. […] IC50 values were calculated by nonlinear regression using the sigmoid concentration-response (variable slope) using CDD Vault software. All values reported are average of at least 2 determinations.

As to `CC[C@H](C)[C@H](NC(C)=O)C(=O)N[C@@H](CCC(C)(C)C)C(=O)O` [Example 16, (S)-2-((2S,3S)-2-Acetamido-3-methylpentanamido)-5,5-dimethylhexanoic Acid], the IC50 is 0.29 µM.

One may read the IC50 as the point on the concentration scale where inhibition reaches its midpoint.
